Results reported in article PMC7855930, “Nontoxic Cobalt(III) Schiff Base Complexes with Broad‐Spectrum Antifungal Activity” (Chemistry (Weinheim an Der Bergstrasse, Germany), 2020).

Columns and labels:
[1] = system: Klebsiella pneumoniae ATCC 700603 (K6; ESBL SHV-18); type: cell-based; conditions: 18 h
Experimental: (§1) CO-ADD High Throughput Screening
(§2) Bacterial broth microdilution minimum inhibitory concentration (MIC) assay Bacterial strains were cultured in Cation-adjusted Mueller Hinton broth (CAMHB; Bacto Laboratories 212322) at 37 °C overnight. A sample of each culture was then diluted 40-fold in fresh CAMHB and incubated at 37 °C for 1.5-3 h. The resultant mid-log phase cultures were diluted with CAMHB (CFU/mL measured by OD600), then added to each well of the compound-containing plates (384-well non-binding surface (NBS) plates; Corning CLS3640), giving a cell density of 5 × 10^5 CFU/mL and a total volume of 50 µL. Plates were covered and incubated at 37 °C for 18 h without shaking. Inhibition of bacterial growth was determined measuring absorbance at 600 nm (OD600), using media only as negative control and bacteria without inhibitors as positive control. MIC values were determined as the lowest concentration at which the growth was inhibited at ≥ 80%. Colistin sulfate (Sigma C4461) and vancomycin HCl (Sigma 861987) were used as positive inhibitor controls on each plate for Gram-negative and Gram-positive bacteria, respectively.
(§3) Figure S1. 1H NMR (400 MHz) of [Co(ATS)(DMAP)2]NO3 (3) in DMSO-d6.
(§4) (1 picture or pasted object on this page, not shown here)

C. auris CBS 12373 = test: Antifungal MIC assay (broth microdilution in YNB); type: cell-based, Candida auris
Source text: (§5) Yeast strains: Candida albicans (ATCC 90028, NCCLS 11), Cryptococcus neoformans (ATCC 208821, H99 type strain), Candida tropicalis (ATCC 750, type strain), Candida glabrata (ATCC 90030, NCCLS 84) and Cryptococcus deuterogattii (ATCC 32609, type strain) were obtained from the American Type Culture Collection (ATCC). Cryptococcus deuterogattii (CBS 7750), Candida auris (CBS 10913) and Candida auris (CBS 12373) were obtained from the CBS‐KNAW culture collection. The strains were maintained on glycerol/YPD (yeast extract‐peptone dextrose) broth (20:80 v/v) at −80 °C.
(§6) Antifungal minimum inhibitory concentration (MIC) assay: The cobalt complexes and antifungal control compounds were serially diluted in 50 μL of Yeast Nitrogen Broth (YNB; BD, Cat No. 233520 supplemented with 2 % glucose and 10 mM ammonium sulfate) two‐fold across the wells of non‐binding surface (NBS) 96‐well plates (Corning; Cat. No. 3641). Plates were set up in quadruplicate for each strain tested, and two biological replicates were conducted on separate assay days.
(§7) Yeast strains were cultured from glycerol onto YPD (Becton Dickinson 242720) agar at 30 °C for 72 h. For each strain, a minimum of five single colonies were taken from the agar plate and dissolved in sterile water and adjusted to form a yeast suspension of 1×10^6 to 5×10^6 CFU mL^−1 (as determined by OD530). The suspension was subsequently diluted into YNB media, and added to each well of the compound containing plates, giving a final cell density of 2.5×10^3 CFU mL^−1 and a total volume of 100 μL. Plates were covered and incubated at 35 °C for 36 h without shaking.
(§8) Growth inhibition of all strains was determined visually where the MIC was recorded as the lowest compound concentration with no visible growth. Fluconazole (Sigma F8929), ketoconazole (Sigma K1003) and micafungin (Sigma SML2288) were used as internal positive inhibitor controls for every strain tested.

C. auris CBS 10913 = test: Antifungal MIC assay (broth microdilution in YNB); type: cell-based, Candida auris
Source text: as §5, §6, §7, §8

[2] = system: C. deuterogattii ATCC 32609; test: Antifungal MIC assay (broth microdilution in YNB); type: cell-based, Cryptococcus deuterogattii
Source text: as §5, §6, §7, §8

[3] = system: C. deuterogattii CBS 7750; test: Antifungal MIC assay (broth microdilution in YNB); type: cell-based, Cryptococcus deuterogattii
Source text: as §5, §6, §7, §8

C. albicans ATCC 90028 = test: Antifungal MIC assay (broth microdilution in YNB); type: cell-based, Candida albicans
Source text: as §5, §6, §7, §8

C. glabrata ATCC 90030 = test: Antifungal MIC assay (broth microdilution in YNB); type: cell-based, Candida glabrata
Source text: as §5, §6, §7, §8

human red blood cells = test: Haemolysis assay; type: cell-based; conditions: 1 h at 37 °C
Experimental: Haemolysis assay: Human whole blood (Australian Red Cross Blood Service) was washed three times with three volumes of 0.9 % NaCl and resuspended in a concentration of 0.5×10^8 cells mL^−1, determined by manual cell count in a Neubauer haemocytometer. Washed cells were added to compound containing plates (384‐well round bottom polypropylene plates, Corning 3657) for a final volume of 50 μL, shaken for 10 min and incubated for 1 h at 37 °C, without shaking. After incubation, the plates were centrifuged at 1000 g for 10 min to pellet cells and debris, 25 μL of the supernatant was then transferred to reading plates (384‐well flat bottom polystyrene plates, Corning CLS3680), with haemolysis determined by measuring the supernatant absorbance at […] (OD405), using cells without inhibitors as negative control and cells with 1 % Triton X‐100 (Sigma T8787) as positive control. HC10 and HC50 (concentration at which 10 and 50 % haemolysis is induced, respectively) were calculated by curve fitting the inhibition values vs. log(concentration) of four replicates using a sigmoidal dose–response function with variable fitting values for top, bottom and slope using Prism 8. Melittin (Sigma M2272) was used as positive haemolytic control on each plate. Human ethics approval from the University of Queensland Institutional Human Research Ethics Committee was obtained for use of human blood for haemolysis studies (approval number 201400003).

C. tropicalis ATCC 750 = test: Antifungal MIC assay (broth microdilution in YNB); type: cell-based, Candida tropicalis
Source text: as §5, §6, §7, §8

[4] = system: Staphylococcus aureus ATCC 43300 (MRSA); test: CO-ADD bacterial broth microdilution MIC assay; type: cell-based
Experimental: as §1, §2, §3, §4

**Q.** For “[Co(3F‐salophen)(3F‐BnNH2)2]NO3 [Compound 6]”, which “MIC Kp (Klebsiella pneumoniae ATCC 700603)” value [1] is on record?
**A.** > 32 µg/mL

**Q.** What about the “MIC Candida auris CBS 12373” value (C. auris CBS 12373; Table S1) of the same substance?
**A.** 17.3 µg/mL

**Q.** And the MIC (C. auris CBS 12373; range of MICs, n=8, 35 °C, 36 h, visual, read-out: MIC C. auris CBS 12373)?
**A.** 25 µM

**Q.** And the “MIC Candida auris CBS 10913” value (C. auris CBS 10913; Table S1)?
**A.** 0.03 to 0.54 µg/mL

**Q.** What about the “MIC C. auris CBS 10913, lowest value ('as low as')” value (C. auris CBS 10913; lower end of MIC range) of the same substance?
**A.** 98 nM

**Q.** What about the “MIC Cryptococcus deuterogattii ATCC 32609” value ([2]; Table S1) of the same substance?
**A.** 69.4 µg/mL

**Q.** And the MIC ([2]; range of MICs, n=8, 35 °C, 36 h, visual, read-out: MIC C. deuterogattii ATCC 32609)?
**A.** 100 µM

**Q.** And the “MIC Cryptococcus deuterogattii CBS 7750” value ([3]; Table S1)?
**A.** > 69.4 µg/mL

**Q.** And the MIC ([3]; range of MICs, n=8, 35 °C, 36 h, visual, read-out: MIC C. deuterogattii CBS 7750)?
**A.** >100 µM

**Q.** What about the “MIC Candida albicans ATCC 90028” value (C. albicans ATCC 90028; Table S1) of the same substance?
**A.** 69.4 µg/mL

**Q.** And the MIC (C. albicans ATCC 90028; range of MICs, n=8, 35 °C, 36 h, visual, read-out: MIC C. albicans ATCC 90028)?
**A.** 100 µM

**Q.** What about the “MIC Candida glabrata ATCC 90030” value (C. glabrata ATCC 90030; Table S1) of the same substance?
**A.** > 69.4 µg/mL

**Q.** What about the MIC (C. glabrata ATCC 90030; range of MICs, n=8, 35 °C, 36 h, visual, read-out: MIC C. glabrata ATCC 90030) of the same substance?
**A.** >100 µM

**Q.** What about the “Haem HC10 (concentration at which 10 % haemolysis is reached)” value (human red blood cells) of the same substance?
**A.** >100 µM

**Q.** What about the “MIC Candida tropicalis ATCC 750” value (C. tropicalis ATCC 750; Table S1) of the same substance?
**A.** > 69.4 µg/mL

**Q.** What about the MIC (C. tropicalis ATCC 750; range of MICs, n=8, 35 °C, 36 h, visual, read-out: MIC C. tropicalis ATCC 750) of the same substance?
**A.** >100 µM

**Q.** What about the “MIC Sa (Staphylococcus aureus ATCC 43300, MRSA)” value ([4]; CAMHB, 37 °C, 18 h, ≥ 80% inhibition) of the same substance?
**A.** 8 µg/mL

**Q.** And the “MIC methicillin‐resistant S. aureus (MRSA)” value ([4]; value in μM given in brackets in the text)?
**A.** 11.5 µM
